Results from patent US20080145313A1, “Compositions and Methods for the Treatment and Prevention of Neoplastic Disorders” (Genesis Research & Development Corporation Limited, priority 2006, published 2008).

Assays:
[1] = system: A549 cells; assay: Growth inhibition of siRNA-transfected A549 cells, SYBR Green I DNA content; assay type: cell-based, human; settings: for Growth Inhibition in A549 cells: 10 nM siRNA, DNA content 96 hours after transfection
Summary of the method: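 A549 cells reverse-transfected with 10 nM Stealth siRNAs via Lipofectamine RNAiMAX, seeded at 5×10^3 cells/cm^2 in RPMI 1640/10% FCS; non-specific siRNA control. DNA content read 96 h post-transfection by SYBR Green I fluorescence (ex 485/em 535 nm) after freeze-thaw and Triton X-100 lysis; mean of three wells.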

[2] = system: A549 xenograft tumor; assay: Xenograft tumor growth of A549 cells transfected with siRNA pre-implantation in CD-1 nude mice; assay type: in vivo, mouse; settings: for tumor growth inhibition compared to the control groups: cells transfected pre-implantation, monitored 33 or 26 days; for tumor growth rate compared to control groups: A549 cells transfected with siRNA before s.c. inoculation
Description: To determine the effect of RRM1 knockdown on tumor growth, A549 cells (human lung cancer cell line; ATCC No. CCL-185) were reverse-transfected prior to implantation in CD-1 nude mice. In 175 cm^2 culture flasks, 10×10^6 A549 cells (in RPMI supplemented with 10% fetal calf serum) were added to pre-made lipoplexes. To make lipoplexes, Lipofectamine RNAiMAX in serum-free RPMI was added to an equal volume of serum-free RPMI containing siRNA (RRM1-2; SEQ ID NO: 4831 (DNA), and SEQ ID NO: 5137 (RNA)) and a control siRNA (SEQ ID NO: 4804 (DNA), and SEQ ID NO: 5301 (RNA)). After addition of cells, the final concentration of siRNA in the flask was 10 nM. Untransfected cells served as a further control. Flasks were incubated at 37° C. for 24 h to allow transfection to proceed.
The cells were harvested by trypsinization 24 h after the transfection, washed twice in PBS and viable cells were counted. Equal numbers of cells (1×10^7) were inoculated into CD-1 nude mice (n=7-9). Briefly, 5 to 7 weeks old nude mice were subcutaneously (s.c.) injected in the right flank with A549 cells in 100 μl PBS. Tumor growth was monitored 3 times per week by measuring tumor sizes using a digital caliper. Tumor volume was expressed in […] using the formula: V=a^2×b×0.52, where a and b represent the minimum and maximum tumor diameter, respectively. Mean tumor volumes calculated from each measurement were then plotted in a standard graph to compare the tumor growth of transfected cells to that of control.
To determine the effect of siRNA-mediated knockdown of HK-II, CAD, IMPDH2, RRM2, SLC16A1 and SLC29A1 on tumor growth, A549 cells (human lung cancer cell line; ATCC No. CCL-185) were reverse-transfected prior to implantation in CD-1 nude mice as described above with siRNAs given in SEQ ID NO: 5307 (DNA), and SEQ ID NO: 5304 (RNA) for RRM2, SEQ ID NO: 4932 (DNA), and SEQ ID NO: 5227 (RNA) for ENT1, SEQ ID NO: 4813 (DNA), and SEQ ID NO: 5119 (RNA) for HK-II, SEQ ID NO: 4827 (DNA), and SEQ ID NO: 5133 (RNA) for CAD, SEQ ID NO: 4879 (DNA), and SEQ ID NO: 5182 (RNA) for IMPDH2 and SEQ ID NO: 4924 (DNA), and SEQ ID NO: 5219 (RNA) for SLC16A1, respectively. The siRNA given in SEQ ID NO: 4804 (DNA), and SEQ ID NO: 5301 (RNA) was used as control.
In two separate experiments, CD-1 mice were divided into five groups that received untransfected A549 cells, cells transfected with control siRNA or three different siRNAs (as listed above), respectively. Cells were transfected in vitro using the method as described in Example 8, and 24 h after transfection, s.c. inoculated into mice. Tumor growth was measured 3 times per week. In the first experiment, mice received cells transfected with siRNA targeting RRM2, HK-II or SLC29A1 and were monitored for 33 days. In the second experiment, mice received cells transfected with siRNA targeting CAD, IMPDH2 or SLC16A1, and were monitored for 26 days. […] Similarly, preliminary data indicated tumor growth rate was reduced for the groups receiving cells transfected with siRNA targeting CAD and SLC16A1. Twenty-six days after cell inoculation, the tumor volume for mice with cells transfected with siRNA targeting CAD or SLC16A1 was 97.2±7.3 mm^3 or 110.1±28.1 mm^3, respectively.

SEQ ID NO: 4813: siRNA targeting HK-II (chain 1 AATGAGACCAATCTCACAGTTGTGG; chain 2 AAUGAGACCAAUCUCACAGUUGUGG; chemistry not given here; one strand in two spellings)
Growth Inhibition in A549 cells [1]: ++ (inhibits by at least 75%)
tumor growth inhibition compared to the control groups [2]: No tumor growth inhibition

SEQ ID NO: 4827: siRNA targeting CAD (chain 1 TTCAAGAGAATTTGCTGCCTCGCTC; chain 2 UUCAAGAGAAUUUGCUGCCUCGCUC; chemistry not given here; one strand in two spellings)
Growth Inhibition in A549 cells [1]: + (inhibits by at least 50%)
tumor growth rate compared to control groups [2]: reduced
tumor volume ([2]; twenty-six days after cell inoculation, preliminary data): 97.2±7.3 mm^3

SEQ ID NO: 4831: Stealth siRNA targeting RRM1 (chain 1 TAGAAGTGCATACTAGTGAGTTTGC; chain 2 UAGAAGUGCAUACUAGUGAGUUUGC; Stealth siRNA, chemical pattern not given here; one strand in two spellings)
growth inhibition, A549 ([1]; 0.1 nM siRNA, 96 h post-transfection, normalized to control siRNA): 50%
Growth Inhibition in A549 cells [1]: ++ (inhibits by at least 75%)
mice with measurable tumors ([2]; A549 cells transfected with 10 nM siRNA 24 h before s.c. inoculation): two of eight
tumor growth rate compared to control groups [2]: reduced dramatically
average tumor size ([2]; six weeks after the cell inoculation, 10 nM siRNA pre-implantation): 49.1±18.4 mm^3

SEQ ID NO: 4879: siRNA targeting IMPDH2 (chain 1 AATACCGCCTGTAAGCGCCATTGCT; chain 2 AAUACCGCCUGUAAGCGCCAUUGCU; Both strands are one antisense strand in DNA/RNA notation, chemistry not given here, further chemistry not given here; one strand in two spellings)
Growth Inhibition in A549 cells [1]: ++ (inhibits by at least 75%)
tumor growth inhibition compared to the control groups [2]: No tumor growth inhibition
